# Results as given in patent US20190192521A1, “Methods of Treating Arid1A-Mutated Cancers With HDAC6 Inhibitors and EZH2 Inhibitors” (The Wistar Institute of Anatomy and Biology, priority 2016, published 2019).
# Tests used:
# Type in all cases: cell-based, human
# [1] = tested on: primary clear cell ovarian tumour cultures with (VOA4841) and without (XVOA295) ARID1A expression; assay: colony formation / dose response, primary clear cell ovarian tumour cultures
# Method: FIG. 71 illustrates the HDAC6 inhibitor ACY1215 dose response curves of primary clear cell ovarian tumour cultures with (VOA4841) and without (XVOA295) ARID1A expression; n=3 independent experiments.
# Cell lines and 3D culture conditions. The protocol for using primary cultures of human ovarian clear cell tumour cells was approved by the University of British Columbia Institutional Review Board. The primary tumour cells were cultured in RPMI 1640 supplemented with 10% fetal bovine serum (FBS) and 1% penicillin/streptomycin. Ovarian clear cell carcinoma cell lines (TOV21G, OVTOKO, OVISE and RMG1) were purchased from JCRB (Japanese Collection of Research Bioresources) Cell Bank. TOV21G, OVTOKO, and OVISE cells were cultured in RPMI 1640 supplemented with 10% fetal bovine serum (FBS) and 1% penicillin/streptomycin. RMG1 cells were cultured in 1:1 Dulbecco's modified Eagle's medium (DMEM):F12 supplemented with 10% FBS. Viral packaging cells were cultured in DMEM supplemented with 10% FBS at 37° C. supplied with 5% CO2. Cells lines are authenticated at The Wistar Institute's Genomics Facility using short tandem repeat DNA profiling. Regular Mycoplasma testing was performed using LookOut Mycoplasma PCR detection (Sigma-Aldrich Co.). […]
# Colony formation assays were performed as follows. […] Integrated density was measured using NIH ImageJ software.
# [2] = tested on: ARID1A wild-type RMG1 cells; assay: apoptosis (Annexin V, cleaved caspase 3, cleaved PARP p85) in ARID1A wild-type cells; conditions: 1.25 μM
# Method: Expression of apoptotic markers cleaved caspase 3 and cleaved PARP p85 by immunoblot. GAPDH expression was used as a loading control.
# For immunoblotting, protein was isolated as described in Bitler et al. Nat. Med. 2015, 21, 231-238. Briefly, protein was extracted with RIPA buffer (150 mM NaCl, 1% NP40, 0.5% sodium deoxycholate, 0.1% SDS, 50 mM Tris pH 8.0, and 1 mM PMSF). Protein was separated on a SDS-PAGE and transferred to PVDF membrane. For immunoblot of p53 post-translation modifications, cells were treated with a proteasome inhibitor MG132 (10 μM) to stabilize p53 protein.
# (§1) Annexin V and mitochondria membrane potentials were measured as follows. Phosphatidylserine externalization was detected using an Annexin V staining kit (Life Technologies) following the manufacturer's instructions. To measure change in mitochondria membrane potential cells were treated with 200 nM of tetramethylrhodamine, ethyl ester (TMRE; Abcam) for 15 min at 37° C. Annexin V and TMRE-positive cells were detected using the LSR18 and analyzed with the FlowJo software module.
# [3] = tested on: ARID1A-mutated TOV21G cells; assay: mitochondrial membrane potential (TMRE, FACS), TOV21G
# Method: Mean of five experimental replicates with S.E.M. p-value calculated via two-tailed t-test.
# FIG. 96 illustrates ARID1A-mutated TOV21G cells with or without endogenous p53 knockdown by a shp53 that targets the 3′ UTR region of the human TP53 gene together with a lentivirus encoding a control, wildtype p53 or a p53K12OR mutant—the indicated cells were treated with or without ACY1215 and examined for mitochondrial membrane potential by FACS; n=3 independent experiments.
# as §1
# [4] = tested on: ARID1A wild-type RMG1 cells with or without shARID1A; assay: mitochondrial membrane potential (TMRE, FACS), RMG1; conditions: 1.25 μM
# Method: The mitochondria membrane potential was quantified by TMRE using FACS analysis. Data was collected via FACS and is representative of 3 independent experiments.
# Error bars represent standard error mean. The p-value was calculated via two-tailed t-test.
# as §1
smiles,measurement,setting,value
"O=C(CCCCCCNC(=O)c1cnc(N(c2ccccc2)c2ccccc2)nc1)NO [rocilinostat, 2-(diphenylamino)-N-(7-(hydroxyamino)-7-oxoheptyl)pyrimidine-5-carboxamide]",IC50 values in primary cells,[1],comparable to those observed in cell lines
same,sensitivity of cultures without ARID1A expression compared to those with ARID1A expression,[1],more sensitive
same,apoptosis in ARID1A wild type cells,[2],did not induce a significant increase in apoptosis
same,markers of apoptosis in ARID1A wild-type cells with ARID1A knockdown,[2]; shARID1A,significantly increased markers of apoptosis
same,mitochondrial membrane potential in ARID1A-mutated cells,[3]; 1.25 μM,significantly decreased
same,dependence of mitochondrial membrane potential decrease,"[3]; p53 knockdown, wildtype p53 or p53K120R rescue",both p53 and p53K120Ac dependent
same,"mitochondrial membrane potential, ARID1A knockdown compared with controls",[4],significantly decreased
